These are literature values, as cited in US20260295002A1, “GASTROINTESTINAL RETENTIVE FORMULATIONS OF ECHINOCANDINS” (The Cleveland Clinic Foundation, priority 2023, published 2026).

For the data set the following is noted: background statement.

Counter-ions that a name gives are not always drawn.

As to `CCC(C)CC(C)CCCCCCCCC(=O)N[C@H]1C[C@@H](O)[C@@H](NCCN)NC(=O)[C@@H]2[C@@H](O)CCN2C(=O)[C@H]([C@H](O)CCN)NC(=O)[C@H]([C@H](O)[C@@H](O)c2ccc(O)cc2)NC(=O)[C@@H]2C[C@@H](O)CN2C(=O)[C@H]([C@@H](C)O)NC1=O` (some centres unmarked) [Caspofungin], the oral bioavailability result is on record as “poor oral bioavailability”.

Take `CC[C@H](C)C[C@H](C)CCCCCCCCC(=O)N[C@H]1C[C@@H](O)[C@@H](NCCN)NC(=O)[C@@H]2[C@@H](O)CCN2C(=O)[C@H]([C@H](O)CCN)NC(=O)[C@H]([C@H](O)[C@@H](O)c2ccc(O)cc2)NC(=O)[C@@H]2C[C@@H](O)CN2C(=O)[C@H]([C@@H](C)O)NC1=O` [caspofungin acetate, 1-[(4R,5S)-5-[(2-aminoethyl)amino]-N2-(10,12-dimethyl-1-oxotetradecyl)-4-hydroxy-L-ornithine]-5-[(3R)-3-hydroxy-L-ornithine]pneumocandin B0 diacetate (salt)]: the oral bioavailability entry was “poor oral bioavailability”.
